In patent US5998433A, “Condensed compounds, their production and use” (Takeda Chemical Industries, Ltd., priority 1994, dated 1999):
Where a name gives a salt, the structure may show the parent alone.

Columns and labels:
[1] = system: Aspergillus fumigatus IFO 6344; test: Antifungal activity (agar plate dilution method), organism H; format: cell-based; settings: IFO6344, 35° C., 20 hours, pH 7.0
Method: (§1) Determination of Antifungal Activity (Agar Plate Dilution Method)
(§2) RPMI 1640 (Gibco BRL) was dissolved in 0.3 M MOPS buffer, pH 7.0, to obtain a 2-fold dilution; this solution was filtered to remove germ cells (0.45 μm). Separately, 1.4% agar (Wako Pure Chemical Industries) was thermally sterilized (121° C., 15 minutes). This agar was mixed with an equal amount of the above 2-fold diluted RPMI 1640 (0.15 M MOPS, pH 7.0). To 9.9 ml of this RPMI 1640 (0.15 M MOPS, pH 7.0)-0.7% agar medium, 0.1 ml of a 100-fold diluted DMSO solution of the test drug was added; this mixture was prepared as an agar plate in a petri dish 9 cm in diameter. The drug (dissolved in DMSO to 100-fold dilution) was used in a series of 2-fold dilutions of a starting concentration of 64 μg/ml in the agar medium. For drug-free control, an agar medium containing 0.1 ml of DMSO or […] of sterile water was prepared. An inoculum of frozen cells was diluted with physiological saline and spot inoculated onto the agar medium (0.005 ml; 700-15,000 cfu) using a microplanter (Sakuma Seisakusho), followed by cultivation at 35° C. for 20 hours. Antifungal activity was assessed macroscopically; the minimum concentration for complete growth inhibition was expressed as MIC (minimum growth inhibitory concentration).

[2] = system: Candida albicans IFO 0583; test: Antifungal activity (agar plate dilution method), organism A; format: cell-based; settings: IFO0583, 35° C., 20 hours, pH 7.0
Method: as §1, §2

Candida krusei IFO 1162 = test: Antifungal activity (agar plate dilution method), organism F; format: cell-based; settings: Pichia kudriavzevii, IFO1162, 35° C., 20 hours, pH 7.0
Method: as §1, §2

[3] = system: Candida tropicalis IFO 10241; test: Antifungal activity (agar plate dilution method), organism C; format: cell-based; settings: IFO10241, 35° C., 20 hours, pH 7.0
Method: as §1, §2

Candida utilis IFO 0619 = test: Antifungal activity (agar plate dilution method), organism G; format: cell-based; settings: Williopsis jadinii, IFO0619, 35° C., 20 hours, pH 7.0
Method: as §1, §2

[4] = system: Candida tropicalis IFO 0587; test: Antifungal activity (agar plate dilution method), organism B; format: cell-based; settings: IFO0587, 35° C., 20 hours, pH 7.0
Method: as §1, §2

[5] = system: Candida glabrata IFO 0622; test: Antifungal activity (agar plate dilution method), organism D; format: cell-based; settings: Nakaseomyces glabratus, IFO0622, 35° C., 20 hours, pH 7.0
Method: as §1, §2

[6] = system: Aspergillus niger IFO 4414; test: Antifungal activity (agar plate dilution method), organism I; format: cell-based; settings: IFO4414, 35° C., 20 hours, pH 7.0
Method: as §1, §2

Candida krusei IFO 0584 = test: Antifungal activity (agar plate dilution method), organism E; format: cell-based; settings: Pichia kudriavzevii, IFO0584, 35° C., 20 hours, pH 7.0
Method: as §1, §2

[7] = Plasma HDL-cholesterol-elevating effect in Wistar fatty rats; format: in vivo, Female Wistar fatty rats; settings: for HDL-cholesterol / Total cholesterol / Glucose / Triglyceride / Non-HDL-cholesterol: plasma, 1 week, stomach tube, mean ± standard deviation; for HDL-cholesterol: control 92.4 ± 9.2; for Total cholesterol: control 154 ± 13; for Glucose: control 285 ± 45; for Triglyceride: control 694 ± 192; for Non-HDL-cholesterol: total minus HDL, control 62.0 ± 12.5
From the text: Plasma HDL-cholesterol-elevating Effect in Wistar Fatty Rats
Female Wistar fatty rats (19 weeks of age, bred in Experimental Animals Unit, Takeda Chemical Industries, Ltd.) were given a 0.5% methyl-cellulosesolution of compound 31 by a stomach tube for 1 week. Blood was collected via the orbital sinus under non-fasting conditions; plasma total cholesterol and HDL-cholesterol were enzymatically determined using a commercial kit (produced by Wako Pure Chemical Industries, Ltd.). Non-HDL-cholesterol levels were obtained by subtracting HDL-cholesterol from total cholesterol levels. Triglyceride and glucose were also enzymatically determined using commercial kits (both produced by Iatron Laboratories, Inc.).

[8] = system: Cholesterogenesis in Rat Liver; test: Inhibition of cholesterogenesis in rat liver ([14C] acetic acid incorporation); format: in vivo, male Sprague-Dawley rats; settings: by stomach tube, lower values indicate higher inhibitory activity
Method: Inhibition of Cholesterogenesis in Rat Liver
An aqueous solution of the test drug was administered, by a stomach tube, to male Sprague-Dawley rats at 5 weeks of age; 1 hour later, [^14 C] acetic acid was intravenously administered at a dose of 10 μCi per animal. One hour later, the animals were bled, livers were excised and a portion of liver was treated with a chloroform:methanol mixture to extract lipids. After the lipid fraction was saponified, sterol was extracted with petroleum ether, precipitated using digitonin and the radioactivity in the precipitate fraction was determined using a scintillation counter. The control group orally received 0.5% methyl cellulose solution alone.
The results are shown in Table 3 (lower percent control values indicate higher cholesterol synthesis inhibitory activity).

SMILES | MIC [1] | MIC [2] | MIC (Candida krusei IFO 1162) | MIC [3] | MIC (Candida utilis IFO 0619) | MIC [4] | MIC [5] | MIC [6] | MIC (Candida krusei IFO 0584) | other results
CN(C)Cc1cc2c(o1)CCN(C(=O)CCCCCc1ccccc1)C2 [Example 6, 1-(2-dimethylaminomethyl-6,7-dihydro-4H-furo[3,2-c]pyridin-5-yl)-6-phenylhexan-1-one hydrochloride] | 16 µg/mL | 16 µg/mL | 16 µg/mL | 16 µg/mL | 2 µg/mL | 2 µg/mL | 32 µg/mL | 8 µg/mL | 4 µg/mL | 
CCCCCCCc1ccc(C(=O)N2CCc3cc(CN(C)C)oc3C2)cc1 [Example 21, N,N-dimethyl-[6-(4-heptylbenzoyl)-4,5,6,7-tetrahydrofuro[2,3-c]pyridin-2-ylmethyl]amine hydrochloride] | 1 µg/mL | 2 µg/mL | 2 µg/mL | 2 µg/mL | 1 µg/mL | 2 µg/mL | 4 µg/mL | 1 µg/mL | 1 µg/mL | 
CN(C)Cc1cc2c(o1)CN(C(=O)CCCCCc1ccc(F)cc1)CC2 [Example 27, 1-(2-dimethylaminomethyl-5,7-dihydro-4H-furo[2,3-c]pyridin-6-yl)-6-(4-fluorophenyl)hexan-1-one hydrochloride] | 2 µg/mL | 16 µg/mL | 8 µg/mL | 64 µg/mL | 2 µg/mL | 32 µg/mL | 16 µg/mL | 2 µg/mL | 4 µg/mL | 
CN(C)Cc1cc2c(o1)CCN(C(=O)CCCCCc1ccc(F)cc1)C2 [Example 28, 1-(2-dimethylaminomethyl-6,7-dihydro-4H-furo[3,2-c]pyridin-5-yl)-6-(4-fluorophenyl)hexan-1-one hydrochloride] | 4 µg/mL | 8 µg/mL | 8 µg/mL | 32 µg/mL | 2 µg/mL | 2 µg/mL | 16 µg/mL | 4 µg/mL | 4 µg/mL | 
CN(C)Cc1cc2c(o1)CN(C(=O)c1ccc(C(=O)c3ccc(Cl)cc3)cc1)CC2 [Example 31, N,N-dimethyl-[6-[4-(4-chlorobenzoyl)benzoyl]-4,5,6,7-tetrahydrofuro[2,3-c]pyridin-2-ylmethyl]amine hydrochloride] | 0.5 µg/mL | 8 µg/mL | 32 µg/mL | 16 µg/mL | 4 µg/mL | 2 µg/mL | 64 µg/mL | 0.5 µg/mL | 16 µg/mL | Plasma HDL-cholesterol level ([7]; in words, Wistar fatty rats): increased significantly, depending on dose; Plasma glucose level ([7]; in words, Wistar fatty rats): not affected; Plasma non-HDL-cholesterol level ([7]; in words, Wistar fatty rats): not affected; Plasma total cholesterol level ([7]; in words, Wistar fatty rats): increased significantly, depending on dose; Plasma triglyceride level ([7]; in words, Wistar fatty rats): not affected; HDL-cholesterol ([7]; 0.1 mg/kg-day, p<0.05): 113 ± 15.4 mg/dL; Total cholesterol ([7]; 0.1 mg/kg-day): 175 ± 21 mg/dL; Glucose ([7]; 0.1 mg/kg-day): 251 ± 72 mg/dL; Triglyceride ([7]; 0.1 mg/kg-day): 599 ± 195 mg/dL; Non-HDL-cholesterol ([7]; 0.1 mg/kg-day): 62.5 ± 7.9 mg/dL; HDL-cholesterol ([7]; 0.3 mg/kg-day, p<0.05): 135 mg/dL; Total cholesterol ([7]; 0.3 mg/kg-day, p<0.05): 192 ± 24 mg/dL; Glucose ([7]; 0.3 mg/kg-day): 242 ± 39 mg/dL; Triglyceride ([7]; 0.3 mg/kg-day): 538 ± 155 mg/dL; Non-HDL-cholesterol ([7]; 0.3 mg/kg-day): 57.1 ± 10.7 mg/dL
CN(C)Cc1cc2c(o1)CCN(C(=O)c1ccc(C(=O)c3ccc(Cl)cc3)cc1)C2 [Example 32, N,N-dimethyl-[5-[4-(4-chlorobenzoyl)benzoyl]-4,5,6,7-tetrahydrofuro[3,2-c]pyridin-2-ylmethyl]amine hydrochloride] | 2 µg/mL | 16 µg/mL | 32 µg/mL | 32 µg/mL | 8 µg/mL | 8 µg/mL | 32 µg/mL | 2 µg/mL | 32 µg/mL | 
CN(C)Cc1cc2c(o1)CN(C(=O)c1ccc(/C=C\c3ccccc3)cc1)CC2 [Example 33, (Z)-N,N-dimethyl-[6-(4-stilbenecarbonyl)-4,5,6,7-tetrahydrofuro[2,3-c]pyridin-2-ylmethyl]amine hydrochloride] | 0.5 µg/mL | 32 µg/mL | 16 µg/mL | 64 µg/mL | 4 µg/mL | 16 µg/mL | 16 µg/mL | 0.25 µg/mL | 8 µg/mL | 
CNCc1cc2c(o1)CN(C(=O)CCCCCc1ccccc1)CC2 [Example 38, 1-(2-methylaminomethyl-5,7-dihydro-4H-furo[2,3-c]pyridin-6-yl)-6-phenylhexan-1-one hydrochloride] |  |  |  |  |  |  |  |  |  | Cholesterol synthesis in rat liver, % of control ([8]; 30 mg/kg): 29.9 % Control
CCN(CC)Cc1cc2c(o1)CN(C(=O)c1ccc(C(=O)c3ccccc3)cc1)CC2 [Example 39, N,N-diethyl-[6-(4-benzoylbenzoyl)-4,5,6,7-tetrahydrofuro[2,3-c]pyridin-2-ylmethyl]amine hydrochloride] |  |  |  |  |  |  |  |  |  | Cholesterol synthesis in rat liver, % of control ([8]; 3.0 mg/kg): 64.6 % Control
CN(C)Cc1cc2c(o1)CN(C(=O)CCCCSc1ccccc1)CC2 [Example 43, 1-(2-dimethylaminomethyl-5,7-dihydro-4H-furo[2,3-c]pyridin-6-yl)-5-phenylthiopentan-1-one hydrochloride] | 8 µg/mL | 8 µg/mL | 16 µg/mL | 8 µg/mL | 2 µg/mL | 2 µg/mL | 16 µg/mL | 4 µg/mL | 16 µg/mL | 
CN(C)Cc1cc2c(o1)CCN(C(=O)CCCCSc1ccccc1)C2 [Example 44, 1-(2-dimethylaminomethyl-6,7-dihydro-4H-furo[3,2-c]pyridin-5-yl)-5-phenylthiopentan-1-one hydrochloride] | 8 µg/mL | 16 µg/mL | 16 µg/mL | 8 µg/mL | 4 µg/mL | 8 µg/mL | 32 µg/mL | 8 µg/mL | 8 µg/mL | 
CN(C)Cc1cc2c(o1)CCN(C(=O)OCCCCc1ccccc1)C2 [Example 48, N,N-dimethyl-[5-(4-phenylbutoxycarbonyl)-4,5,6,7-tetrahydrofuro[3,2-c]pyridin-2-ylmethyl]amine hydrochloride] | 32 µg/mL | 16 µg/mL | 16 µg/mL | 64 µg/mL | 2 µg/mL | 8 µg/mL | 32 µg/mL | 16 µg/mL | 8 µg/mL | 
CN(C)Cc1cc2c(o1)CCN(S(=O)(=O)CCCCCc1ccccc1)C2 [Example 53, N,N-dimethyl-[5-(5-phenylpentylsulfonyl)-4,5,6,7-tetrahydrofuro[3,2-c]pyridin-2-ylmethyl]amine hydrochloride] |  |  |  |  |  |  |  |  |  | Cholesterol synthesis in rat liver, % of control ([8]; 10 mg/kg): 42.3 % Control
